In patent US20240376432A1, “METHOD FOR PREPARING PLURIPOTENT STEM CELL-DERIVED HEMATOPOIETIC STEM CELL AND METHOD FOR CONSTRUCTING HUMANIZED MOUSE MODEL BY USING HEMATOPOIETIC STEM CELL THUS PREPARED” (SUNGKWANG MEDICAL FOUNDATION, priority 2021, published 2024):

System: human pluripotent stem cells (hPSCs)
Experiment: Differentiation of human pluripotent stem cells into hematopoietic stem cells, proportion of CD34+CD45+ cells by FACS
Assay type: cell-based
Experimental: Specific experiments on the method of preparing human hematopoietic stem cells were performed as follows. First, isolated human pluripotent stem cells (hPSCs) were maintained in stemMACS-IPS brew medium for 2 days. The differentiation base culture medium consisted of the following composition: Stempro 34-SFM (+stempro sup)+200 ug/ml of human Transferrin +2 mM of L-glutamine+0.5 mM of L-ascorbic acid+0.45 mM of MTG (1-thioglycerol) +1% of penicillin/streptomycin. To induce mesodermfrom the isolated hPSCs, treatment was performed with CHIR99021 (5 uM) alone, a representative example of a GSK inhibitor, for about 2 days. Next, treatment was performed with 50 ng/ml of BMP4, 50 ng/ml of VEGF, and 100 ng/ml of bFGF for 2 days to induce hemangioblasts. Next, 50 ng/ml of VEGF, 50 ng/ml of bFGF, and SB-431542 (10 μM) as representative examples of TGF-beta inhibitors and 1 μM of retinoic acid (RA) were added and cultured for about 1 day, and 0.1% (w/v) of PVA, 50 ng/ml of stem cell factor (SCF), and 10 ng/ml of bFGF were added and cultured for about 11 days (FIG. 2).
Specifically, it is widely known that vascular endothelial growth factor (VEGF) may be used to induce mesoderm and induce and maintain hemangioblasts (precursors of HSCs), and has been mainly used during the period of inducing hematopoietic stem cells. Therefore, to determine what effect it will have on the final hematopoietic stem cell generation efficiency when VEGF is excluded from the induction of hematopoietic stem cells, the results of hematopoietic stem cell differentiation according to the presence or absence of VEGF (10 ng/ml) were confirmed under the same conditions (50 ng/ml of SCF, 10 ng/ml of bFGF, 20 ng/ml of IL-3 and 10 ng/ml of IL-6) (FIG. 3A).
To confirm the differentiation results, Fluorescence Activated Cell Sorting (FACS) was performed to confirm the proportion of CD34^+CD45^+ cells. […] After washing away the remaining antibodies with staining buffer, 200 μl of staining buffer was added again and analyzed using a flow cytometer.
Specifically, in the existing method, treatment was performed with bone morphogenetic protein 4 (BMP4), VEGF, and CHIR99021 to induce mesoderm. However, it was determined that the above conditions were not compatible with the sequence of the process for differentiating stem cells into hematopoietic stem cells. […]
For this purpose, the efficiency of hematopoietic stem cell differentiation when treated with SB-431542 (SB4), a representative example of a TGF-beta inhibitor, in addition to VEGF and basic fibroblast growth factor (bFGF) for various periods of time, was determined (FIG. 5A). […]

In the case of `Cc1cnc(-c2cnc(NCCNc3ccc(C#N)cn3)nc2-c2ccc(Cl)cc2Cl)[nH]1` [CHIR99021, 6-[[2-[[4-(2,4-Dichlorophenyl)-5-(5-methyl-1H-imidazol-2-yl)-2-pyrimidinyl]amino]ethyl]amino]-3-pyridinecarbonitrile], the “ratio of CD34+CD45+ cells” value (CHIR99021 alone in mesoderm induction, compared with BMP4 (5 ng/ml), VEGF (50 ng/ml) and CHIR99021, FIG. 4B) is reported as “significantly superior”.
In the case of `NC(=O)c1ccc(-c2nc(-c3ccc4c(c3)OCO4)c(-c3ccccn3)[nH]2)cc1` [SB4], the “hematopoietic stem cell differentiation efficiency” value (EHT induction, SB4 for a long period of time in addition to VEGF and bFGF, FIG. 5B) is reported as “significantly reduced” and the “proportion of CD34+CD45+ cells” value (EHT induction, SB4 for less than 24 hours in addition to VEGF and bFGF, FIG. 5B) is reported as “significantly superior”.
For VEGF, the “ratio of CD34+CD45+ cells” value (VEGF (10 ng/ml) present or absent during hematopoietic stem cell induction, with 50 ng/ml SCF, 10 ng/ml bFGF, 20 ng/ml IL-3, 10 ng/ml IL-6, FIG. 3B) was “excluding VEGF from the induction of hematopoietic stem cells was significantly superior”.
